For 8 compounds, TGI results are on record in PubChem BioAssay (NCI).

Some test systems named below: OVCAR-8 ovarian; A498 renal; OVCAR-4 ovarian; COLO 205 colon; SW-620 colon; SR leukemia; SF-268 CNS; M14 melanoma; MDA-N; 786-0 renal; ACHN renal; BT-549 breast; SNB-75 CNS; MDA-MB-231 breast; HOP-62 NSCLC; PC-3 prostate; UACC-257 melanoma; CAKI-1 renal.
Common to all, as to assay: NCI tumour cell line growth inhibition, 48 h

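Step 1: Grow cells in 96-well plates. Step 2: Expose to compound for 48 hours at 5 concentrations. Step 3: Interpolate endpoints linearly; if unreached, use highest concentration. At the TGI there is no net growth.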 Where only a bound is given, the exact number is not on record here.

On to `COc1cc(/C=N/NC2=NCCCN2)ccc1O`, for which the TGI in the assay on OVCAR-8 ovarian, with A498 renal, with OVCAR-4 ovarian, in the assay with COLO 205 colon, with SW-620 colon and in the assay on SR leukemia was more than 100 µM in each case. Further, the TGI in the assay with SF-268 CNS, with M14 melanoma, in the assay on MDA-N, in the assay on 786-0 renal, with ACHN renal and in the assay with BT-549 breast was more than 100 µM throughout. Moreover, the TGI with SNB-75 CNS, with MDA-MB-231 breast, in the assay on HOP-62 NSCLC, in the assay on PC-3 prostate and with UACC-257 melanoma was more than 100 µM throughout.

With `CO[C@H](c1ccccc1)[C@H](O)[C@](O)(c1ccccc1)P(=O)(OC)OC`, the TGI with OVCAR-8 ovarian, in the assay on A498 renal, in the assay with OVCAR-4 ovarian, with COLO 205 colon, in the assay on SW-620 colon and with SR leukemia was more than 100 µM throughout. Further, the TGI in the assay on SF-268 CNS, with M14 melanoma, in the assay with MDA-N, in the assay on 786-0 renal, with ACHN renal and with BT-549 breast was more than 100 µM in each case. Moreover, the TGI in the assay on SNB-75 CNS, with MDA-MB-231 breast, with PC-3 prostate, with CAKI-1 renal and with UACC-257 melanoma was more than 100 µM in each case.

Consider `N=C(N)C1CN(CC=O)C(=O)NC1=O` (stereo unspecified), for which the TGI in the assay on OVCAR-8 ovarian, in the assay with A498 renal, in the assay with OVCAR-4 ovarian, with COLO 205 colon, with SW-620 colon and in the assay with SR leukemia was more than 100 µM each time. Further, the TGI in the assay on SF-268 CNS, in the assay with M14 melanoma, in the assay with MDA-N, in the assay with 786-0 renal, in the assay with ACHN renal and in the assay with BT-549 breast was more than 100 µM throughout. The TGI in the assay with SNB-75 CNS, in the assay on MDA-MB-231 breast, in the assay with HOP-62 NSCLC, with PC-3 prostate and in the assay on UACC-257 melanoma was more than 100 µM throughout.

`CCn1c(SCC(=O)NNC(=S)Nc2ccc(F)cc2)nc2ccccc2c1=O`: the TGI in the assay with OVCAR-8 ovarian, in the assay on A498 renal, in the assay with OVCAR-4 ovarian, in the assay with COLO 205 colon, with SW-620 colon and with SR leukemia was more than 100 µM each time. Further, the TGI with SF-268 CNS, in the assay on M14 melanoma, with MDA-N, with 786-0 renal, in the assay on ACHN renal and in the assay on BT-549 breast was more than 100 µM in each case. Also, the TGI with SNB-75 CNS, in the assay with MDA-MB-231 breast, in the assay with HOP-62 NSCLC, with PC-3 prostate and in the assay on UACC-257 melanoma was more than 100 µM each time.

As for `COC(=O)C(Cc1c[nH]c2ccccc12)NP(=O)(O)OCC1OC(n2cc(F)c(=O)[nH]c2=O)CC1O` (stereo unspecified), the TGI is more than 100 µM with OVCAR-8 ovarian; more than 100 µM with A498 renal; more than 100 µM in the assay with OVCAR-4 ovarian; more than 100 µM with COLO 205 colon; more than 100 µM with SW-620 colon; more than 51.9 µM with SR leukemia. Further, the TGI with SF-268 CNS, with M14 melanoma, in the assay with MDA-N, in the assay on 786-0 renal, with ACHN renal and with BT-549 breast was more than 100 µM in each case. Further, the TGI in the assay on SNB-75 CNS, with MDA-MB-231 breast, with HOP-62 NSCLC, with PC-3 prostate and with UACC-257 melanoma was more than 100 µM each time.

Regarding `CC(C)=CCC[C@@H](C)C1=C(Nc2ccccc2)C(O)=C(C)C(=O)C1=O`, the TGI is 23.5 µM with OVCAR-8 ovarian; more than 30.4 µM in the assay with A498 renal; more than 43.5 µM in the assay with OVCAR-4 ovarian; 13.1 µM in the assay with COLO 205 colon; more than 48 µM in the assay on SW-620 colon; 6.08 µM with SR leukemia. Also, the TGI in the assay with SF-268 CNS is 25.2 µM; with M14 melanoma it was 15.6 µM; with MDA-N, 54.2 µM; in the assay with 786-0 renal, more than 48.5 µM; in the assay with BT-549 breast, 23.1 µM; in the assay on SNB-75 CNS, 15.6 µM. For the same compound, the TGI with MDA-MB-231 breast was more than 27.4 µM; in the assay with HOP-62 NSCLC, 15.6 µM; with PC-3 prostate, more than 40.5 µM; with CAKI-1 renal, 11.8 µM; in the assay on UACC-257 melanoma, 41.9 µM.

As for `COC(=O)c1c(C(=O)OC)c(C(c2ccccc2)c2ccccc2)n(-c2ccccc2)c1Cl`, the TGI with OVCAR-8 ovarian, in the assay with A498 renal, with OVCAR-4 ovarian, with COLO 205 colon, in the assay on SW-620 colon and in the assay on SR leukemia was more than 10 µM each time. Besides, the TGI in the assay with SF-268 CNS, in the assay with M14 melanoma, with MDA-N, in the assay on 786-0 renal, with ACHN renal and in the assay with BT-549 breast was more than 10 µM each time. Also, the TGI in the assay with MDA-MB-231 breast, in the assay with HOP-62 NSCLC, in the assay on PC-3 prostate, in the assay on CAKI-1 renal and in the assay with UACC-257 melanoma was more than 10 µM throughout.

`O=C1NC(Cc2c[nH]c3ccccc23)C(=O)N2C(c3ccccc3)c3[nH]c4ccccc4c3C[C@@H]12` (stereo partly specified): the TGI is 82.7 µM with OVCAR-8 ovarian; more than 100 µM in the assay with A498 renal; more than 100 µM with OVCAR-4 ovarian; 45.9 µM in the assay with COLO 205 colon; more than 100 µM in the assay on SW-620 colon; 37.7 µM in the assay with SR leukemia. In addition, the TGI is 95.7 µM in the assay on SF-268 CNS; 49.1 µM with M14 melanoma; 38.9 µM with MDA-N; 39.1 µM in the assay on 786-0 renal; 89.2 µM in the assay with ACHN renal; 46.4 µM with BT-549 breast. For the same compound, the TGI in the assay with MDA-MB-231 breast stood at 42.2 µM; in the assay on HOP-62 NSCLC, 38.2 µM; with PC-3 prostate, 53.8 µM; in the assay with CAKI-1 renal, 55.9 µM; in the assay on UACC-257 melanoma, 51.6 µM.
